Data reported in patent US6673937B2, “Syntheses and methods of use of new antimitotic agents” (The University of Pittsburgh, priority 2000, dated 2004).

Experiments:
Bcl-2 = Bcl-2 phosphorylation immunoblot in MCF-7 cells; assay type: cell-based, human; settings: 3 or 10 μM
Excerpt: Attempts to determine the phosphorylation status of Bcl-2 in tsFT210 cells using two different antibodies were unsuccessful due to the antibodies' inability to detect mouse Bcl-2 or the lack of specificity. Therefore, phosphorylated and non-phosphorylated Bcl-2 was detected in lysates from human MCF-7 cells (American Type Culture Collection, Manassas, Va.) treated with microtubule perturbing agents. Equal amounts of protein were separated by electrophoresis on 15% SDS-PAGE followed by immunoblotting with an antihuman Bcl-2 antibody (sc-509, Santa Cruz Biotechnology). Positive antibody reactions were visualized using peroxidase-conjugated secondary antibodies (Jackson ImmunoResearch, West Grove, Pa.) and an enhanced chemiluminescence detection system (Renaissance, NEN, Boston, Mass.) according to manufacturer's instructions.
All known microtubule disrupting compounds cause hyperphosphorylation of the antiapoptotic protein Bcl-2 (Haldar S, Jena N and Croce CM (1995) Inactivation of bcl-2 by phospliorylation. Proc Natl Acad Sci USA 92:4507-4511 and Basu A and Haldar S (1998) Microtubule-damaging drugs trigger bcl2 phosphorylation-requirement of phosphorylation on both serine-70 and serine-87 residues of bcl2 protein. Intl J Oncol 13:659-664). Therefore, the phosphorylation status of Bcl-2 in cells treated with various compounds including SR-7 was examined and the results are illustrated in FIG. 29. Proteins from lysates of MCF-7 cells treated with 0.5 μM paclitaxel, 1 μM nocodozole, 1,μM vincristine and, 3 or 10 μM SR-7 were separated by electrophoresis on 15% SDS-PAGE followed by immunoblotting with an antibody to Bcl-2. The phosphorylated form of Bcl-2 (P) appeared as the upper bands and the underphosphorylated form (U) was the lower band.

tsFT210 cells = assay: Flow cytometry, G1 transition in tsFT210 cells; assay type: cell-based, mouse; settings: 5 or 10 μM, additional 6 hours

O=C1C=CC2(Oc3cccc4cccc(c34)O2)c2cccc(OCc3ccco3)c21 [SR-7, 8-(furan-2-ylmethoxy)-1-oxo-1,4-dihydronaphthalene-4-spiro-2′-naphto [1″,8″-de][1′,3′] dioxin]
Bcl-2 phosphorylation (Bcl-2): failed to generate significant hyperphosphorylated Bcl-2
G1 transition (tsFT210 cells): not delayed at G1
